# Where two headings read alike, the source gives them in different places.
# Tested on: Wheat and Barley and weed species
# Experiment: Post-Emergent Test III: postemergent herbicidal activity in wheat and barley, visual rating after 21 d and probit GR20/GR50/GR80/GR90 (Tables 9-13)
# Assay type: in vivo
# Conditions: for pest or weed control at 17.5 g/ha / pest or weed control at 35 g/ha / pest or weed control at 70 g/ha: post-emergence, 504 h
# Source text: Herbicidal evaluations were made visually on a scale of 0 to 100 where 0 represents no activity and 100 represents complete plant death.
# Seeds of the desired test plant species were planted in Sun Gro MetroMix® 306 planting mixture, which typically has a pH of 6.0 to 6.8 and an organic matter content of about 30 percent, in plastic pots with a surface area of 103.2 square centimeters (cm^2). When required to ensure good germination and healthy plants, a fungicide treatment and/or other chemical or physical treatment was applied. The plants were grown for 7-36 days (d) in a greenhouse with an approximate 14 hour (h) photoperiod which was maintained at about 18° C. during the day and 17° C. during the night. Nutrients and water were added on a regular basis and supplemental lighting was provided with overhead metal halide 1000-Watt lamps as necessary. The plants were employed for testing when they reached the second or third true leaf stage.
# A weighed amount, determined by the highest rate to be tested, of each test compound was placed in a 25 mL glass vial and was dissolved in 4 mL of a 97:3 v/v mixture of acetone and DMSO to obtain concentrated stock solutions. […] The concentrated stock solutions obtained were diluted with 20 mL of an aqueous mixture containing acetone, water, isopropyl alcohol, DMSO, Agri-Dex crop oil concentrate, and X-77 surfactant in a 48:39:10:1.5:1.5:0.02 v/v ratio to obtain spray solutions containing the highest application rates. Additional application rates were obtained by serial dilution of 12 mL of the high rate solution into a solution containing 2 mL of a 97:3 v/v mixture of acetone and DMSO and 10 mL of an aqueous mixture containing acetone, water, isopropyl alcohol, DMSO, Agri-Dex crop oil concentrate, and X-77 surfactant in a 48:39:10:1.5:1.5:0.02 v/v ratio to obtain ½×, ¼×, ⅛× and 1/16× rates of the high rate. Compound requirements are based upon a 12 mL application volume at a rate of 187 liters per hectare (L/ha). Formulated compounds were applied to the plant material with an overhead Mandel track sprayer equipped with 8002E nozzles calibrated to deliver 187 L/ha over an application area of 0.503 square meters at a spray height of 18 inches (43 cm) above the average plant canopy height. Control plants were sprayed in the same manner with the solvent blank.
# The treated plants and control plants were placed in a greenhouse as described above and watered by subirrigation to prevent wash-off of the test compounds. After 21 d, the condition of the test plants as compared with that of the untreated plants was determined visually and scored on a scale of 0 to 100 percent where 0 corresponds to no injury and 100 corresponds to complete kill and are presented as indicated in Table 4.
# By applying the well-accepted probit analysis as described by J. Berkson in Journal of the American Statistical Society, 48, 565 (1953) and by D. Finney in “Probit Analysis” Cambridge University Press (1952), herbicidal injury of a specific compound at various rates can be used to calculate GR20, GR50, GR80 and GR90 values, which are defined as growth reduction factors that correspond to the effective dose of herbicide required to provide plant growth reduction (GR) of 20 percent, 50 percent, 80 percent and 90 percent, respectively. Probit analysis was applied to data collected from multiple dose rates of individual compounds utilizing the procedures explained in the following examples. The data for some of the dose rates and analysis of all of the dose rates are captured in the following tables.
compound,measurement,setting,value
"COC(=O)c1nc(-c2ccc(Br)c3c2OC(F)(F)O3)c(F)c(N)c1Cl [Compound 78, Methyl 4-amino-6-(7-bromo-2,2-difluorobenzo[d][1,3]dioxol-4-yl)-3-chloro-5-fluoropicolinate]",Visual Growth Reduction (%) 21 Days After Application CIRAR,"CIRAR Canada thistle (Cirsium arvense), 17.5 g ai/ha",B (85-94)
same,Visual Growth Reduction (%) 21 Days After Application CIRAR,"CIRAR Canada thistle (Cirsium arvense), 35 g ai/ha",B (85-94)
same,Visual Growth Reduction (%) 21 Days After Application CIRAR,"CIRAR Canada thistle (Cirsium arvense), 70 g ai/ha",B (85-94)
same,GR50 CIRAR,"CIRAR Canada thistle (Cirsium arvense), growth reduction of 50%, probit analysis",2 g ai/ha
same,GR80 CIRAR,"CIRAR Canada thistle (Cirsium arvense), growth reduction of 80%, probit analysis",7 g ai/ha
same,GR90 CIRAR,"CIRAR Canada thistle (Cirsium arvense), growth reduction of 90%, probit analysis",12 g ai/ha
same,Visual Growth Reduction (%) 21 Days After Application GALAP,"GALAP cleavers (Galium aparine), 17.5 g ai/ha",D (60-74)
same,Visual Growth Reduction (%) 21 Days After Application GALAP,"GALAP cleavers (Galium aparine), 35 g ai/ha",D (60-74)
same,Visual Growth Reduction (%) 21 Days After Application GALAP,"GALAP cleavers (Galium aparine), 70 g ai/ha",D (60-74)
same,GR50 GALAP,"GALAP cleavers (Galium aparine), growth reduction of 50%, probit analysis",1 g ai/ha
same,GR80 GALAP,"GALAP cleavers (Galium aparine), growth reduction of 80%, probit analysis",>140 g ai/ha
same,GR90 GALAP,"GALAP cleavers (Galium aparine), growth reduction of 90%, probit analysis",>140 g ai/ha
same,GR20 HORVS,"HORVS barley, spring (crop), growth reduction of 20%, probit analysis",13 g ai/ha
same,pest or weed control at 17.5 g/ha,"Hordeum vulgare, HORVS barley, spring (crop), 17.5 g ai/ha, read-out: Visual Growth Reduction (%) 21 Days After Application HORVS",30 to 44%
same,pest or weed control at 35 g/ha,"Hordeum vulgare, HORVS barley, spring (crop), 35 g ai/ha, read-out: Visual Growth Reduction (%) 21 Days After Application HORVS",45 to 59%
same,pest or weed control at 70 g/ha,"Hordeum vulgare, HORVS barley, spring (crop), 70 g ai/ha, read-out: Visual Growth Reduction (%) 21 Days After Application HORVS",60 to 74%
same,Visual Growth Reduction (%) 21 Days After Application KCHSC,"KCHSC kochia (Kochia scoparia), 17.5 g ai/ha",B (85-94)
same,Visual Growth Reduction (%) 21 Days After Application KCHSC,"KCHSC kochia (Kochia scoparia), 35 g ai/ha",A (95-100)
same,Visual Growth Reduction (%) 21 Days After Application KCHSC,"KCHSC kochia (Kochia scoparia), 70 g ai/ha",A (95-100)
same,GR50 KCHSC,"KCHSC kochia (Kochia scoparia), growth reduction of 50%, probit analysis",2 g ai/ha
same,GR80 KCHSC,"KCHSC kochia (Kochia scoparia), growth reduction of 80%, probit analysis",9 g ai/ha
same,GR90 KCHSC,"KCHSC kochia (Kochia scoparia), growth reduction of 90%, probit analysis",19 g ai/ha
same,Visual Growth Reduction (%) 21 Days After Application LAMPU,"LAMPU purple deadnettle (Lamium purpureum), 17.5 g ai/ha",D (60-74)
same,Visual Growth Reduction (%) 21 Days After Application LAMPU,"LAMPU purple deadnettle (Lamium purpureum), 35 g ai/ha",C (75-84)
same,Visual Growth Reduction (%) 21 Days After Application LAMPU,"LAMPU purple deadnettle (Lamium purpureum), 70 g ai/ha",B (85-94)
same,GR50 LAMPU,"LAMPU purple deadnettle (Lamium purpureum), growth reduction of 50%, probit analysis",2 g ai/ha
same,GR80 LAMPU,"LAMPU purple deadnettle (Lamium purpureum), growth reduction of 80%, probit analysis",46 g ai/ha
same,GR90 LAMPU,"LAMPU purple deadnettle (Lamium purpureum), growth reduction of 90%, probit analysis",>140 g ai/ha
same,Visual Growth Reduction (%) 21 Days After Application MATCH,"MATCH wild chamomile (Matricaria recutita L.), 17.5 g ai/ha",G (0-29)
same,Visual Growth Reduction (%) 21 Days After Application MATCH,"MATCH wild chamomile (Matricaria recutita L.), 35 g ai/ha",F (30-44)
same,Visual Growth Reduction (%) 21 Days After Application MATCH,"MATCH wild chamomile (Matricaria recutita L.), 70 g ai/ha",E (45-59)
same,GR50 MATCH,"MATCH wild chamomile (Matricaria recutita L.), growth reduction of 50%, probit analysis",63 g ai/ha
same,GR80 MATCH,"MATCH wild chamomile (Matricaria recutita L.), growth reduction of 80%, probit analysis",>140 g ai/ha
same,GR90 MATCH,"MATCH wild chamomile (Matricaria recutita L.), growth reduction of 90%, probit analysis",>140 g ai/ha
same,Visual Growth Reduction (%) 21 Days After Application PAPRH,"PAPRH common poppy (Papaver rhoeas), 17.5 g ai/ha",F (30-44)
same,Visual Growth Reduction (%) 21 Days After Application PAPRH,"PAPRH common poppy (Papaver rhoeas), 35 g ai/ha",D (60-74)
same,Visual Growth Reduction (%) 21 Days After Application PAPRH,"PAPRH common poppy (Papaver rhoeas), 70 g ai/ha",C (75-84)
same,GR50 PAPRH,"PAPRH common poppy (Papaver rhoeas), growth reduction of 50%, probit analysis",44 g ai/ha
same,GR80 PAPRH,"PAPRH common poppy (Papaver rhoeas), growth reduction of 80%, probit analysis",>140 g ai/ha
same,GR90 PAPRH,"PAPRH common poppy (Papaver rhoeas), growth reduction of 90%, probit analysis",>140 g ai/ha
same,Visual Growth Reduction (%) 21 Days After Application SASKR,"SASKR Russian thistle (Salsola iberica), 17.5 g ai/ha",B (85-94)
same,GR50 SASKR,"SASKR Russian thistle (Salsola iberica), growth reduction of 50%, probit analysis",0.4 g ai/ha
same,GR80 SASKR,"SASKR Russian thistle (Salsola iberica), growth reduction of 80%, probit analysis",9 g ai/ha
same,GR90 SASKR,"SASKR Russian thistle (Salsola iberica), growth reduction of 90%, probit analysis",42 g ai/ha
same,Visual Growth Reduction (%) 21 Days After Application SINAR,"SINAR wild mustard (Sinapis arvensis), 17.5 g ai/ha",A (95-100)
same,Visual Growth Reduction (%) 21 Days After Application SINAR,"SINAR wild mustard (Sinapis arvensis), 35 g ai/ha",A (95-100)
same,Visual Growth Reduction (%) 21 Days After Application SINAR,"SINAR wild mustard (Sinapis arvensis), 70 g ai/ha",A (95-100)
same,GR50 SINAR,"SINAR wild mustard (Sinapis arvensis), growth reduction of 50%, probit analysis",1 g ai/ha
same,GR80 SINAR,"SINAR wild mustard (Sinapis arvensis), growth reduction of 80%, probit analysis",3 g ai/ha
same,GR90 SINAR,"SINAR wild mustard (Sinapis arvensis), growth reduction of 90%, probit analysis",8 g ai/ha
same,GR20 TRZAS,"TRZAS wheat, spring (crop), growth reduction of 20%, probit analysis",20 g ai/ha
same,pest or weed control at 17.5 g/ha,"Triticum aestivum, TRZAS wheat, spring (crop), 17.5 g ai/ha, read-out: Visual Growth Reduction (%) 21 Days After Application TRZAS",0 to 29%
same,pest or weed control at 35 g/ha,"Triticum aestivum, TRZAS wheat, spring (crop), 35 g ai/ha, read-out: Visual Growth Reduction (%) 21 Days After Application TRZAS",30 to 44%
same,pest or weed control at 70 g/ha,"Triticum aestivum, TRZAS wheat, spring (crop), 70 g ai/ha, read-out: Visual Growth Reduction (%) 21 Days After Application TRZAS",45 to 59%
same,Visual Growth Reduction (%) 21 Days After Application VERPE,"VERPE bird's-eye speedwell (veronica persica), 17.5 g ai/ha",G (0-29)
same,Visual Growth Reduction (%) 21 Days After Application VERPE,"VERPE bird's-eye speedwell (veronica persica), 35 g ai/ha",D (60-74)
same,Visual Growth Reduction (%) 21 Days After Application VERPE,"VERPE bird's-eye speedwell (veronica persica), 70 g ai/ha",C (75-84)
same,GR50 VERPE,"VERPE bird's-eye speedwell (veronica persica), growth reduction of 50%, probit analysis",33 g ai/ha
same,GR80 VERPE,"VERPE bird's-eye speedwell (veronica persica), growth reduction of 80%, probit analysis",77 g ai/ha
same,GR90 VERPE,"VERPE bird's-eye speedwell (veronica persica), growth reduction of 90%, probit analysis",119 g ai/ha
same,Visual Growth Reduction (%) 21 Days After Application VIOTR,"VIOTR wild pansy (Viola tricolor), 17.5 g ai/ha",F (30-44)
same,Visual Growth Reduction (%) 21 Days After Application VIOTR,"VIOTR wild pansy (Viola tricolor), 35 g ai/ha",F (30-44)
same,Visual Growth Reduction (%) 21 Days After Application VIOTR,"VIOTR wild pansy (Viola tricolor), 70 g ai/ha",D (60-74)
same,GR50 VIOTR,"VIOTR wild pansy (Viola tricolor), growth reduction of 50%, probit analysis",47 g ai/ha
same,GR80 VIOTR,"VIOTR wild pansy (Viola tricolor), growth reduction of 80%, probit analysis",>140 g ai/ha
same,GR90 VIOTR,"VIOTR wild pansy (Viola tricolor), growth reduction of 90%, probit analysis",>140 g ai/ha
